Laboratory results from patent US8207176B2 (Glaxo Group Limited, priority 2005, dated 2012).
“Also recorded” adds a separate entry of the source. Structures can show the parent of a compound that is named as a salt.

Tested on: influx of neutrophils to the lung in LPS-challenged rats
Test: Rat LPS neutrophilia model
Format: in vivo
Details: intratracheal, LPS aerosol 100 ug/ml 15 min, lavage 4 hours later, in at least one of the range of conditions tested, significant p<0.05, nonsignificant p>0.05
Description: The effect of compounds on the influx of neutrophils to the lung in LPS-challenged rats is evaluated as follows. The test compound is suspended in one of the following solutions: 0.5% tween 80/PBS, 0.5% tween 80/saline, 10% EtOH/saline (with pH adjusted to 2.0, or 8.0 with HCl, or unadjusted), Saline @ pH 2.0, 6.5 or 8.0, 0.5% Tragacanth, 1% DMSO/20% Encapsin/Saline, or acidified 5% Tragacanth. The suspension process may be aided by the use of a glass homogenizer. For intratracheal administration, the animals are anesthetized with inhaled isoflurane and placed in a supine position, the trachea is intubated with a steel gavage needle (1.5 inch, 22 gauge, small ball) or a Penn-Century Microsprayer Aerosolizer (model IA-IB) and 200 ul of dosing solution is delivered. The animals are visually monitored during the recovery process, which typically occurs within two minutes. It is noted that the test compounds may be alternatively administered via the microsprayer in a dry powder blend with a suitable excipient, such as lactose.
Rats treated with compound or vehicle (15 min-24 hours pretreatment) are exposed to an LPS aerosol (100 ug/ml) for 15 min. Four hours later the rats are euthanized with pentobarbital (100 mg/kg, i.p.) and the airways are lavaged with 5 washes of 5 ml of phosphate buffered saline. The harvested cells are stained (Diffquick) and counted to determine total and differential cell data. […] Inhibition of neutrophil levels relative to no compound controls is calculated based on the differential counts.
The data is obtained as % inhibition using a particular concentration and pretreat time.

Row | SMILES | inhibition of neutrophilia (neutrophil levels in lung lavage relative to no compound controls)
1 | Cc1ccc(C(=O)NC2CCCC2)cc1-c1nc(NCc2ncc[nH]2)nc2c1ccc(=O)n2-c1c(F)cccc1F [Example 76, N-cyclopentyl-3-{8-(2,6-difluorophenyl)-2-[(1H-imidazol-2-ylmethyl)amino]-7-oxo-7,8-dihydropyrido[2,3-d]pyrimidin-4-yl}-4-methylbenzamide] | statistically nonsignificant inhibition
2 | Cc1ccc(C(=O)NCc2ccccc2)cc1-c1nc(NCc2ncc[nH]2)nc2c1ccc(=O)n2-c1c(F)cccc1F [Example 77, 3-{8-(2,6-difluorophenyl)-2-[(1H-imidazol-2-ylmethyl)amino]-7-oxo-7,8-dihydropyrido[2,3-d]pyrimidin-4-yl}-4-methyl-N-(phenylmethyl)benzamide] | statistically significant inhibition
3 | Cc1ccc(C(=O)Nc2ccc(F)cc2)cc1-c1nc(NCCN(C)C(=O)OC(C)(C)C)nc2c1ccc(=O)n2-c1c(F)cccc1F [Example 95, 1,1-dimethylethyl (2-{[8-(2,6-difluorophenyl)-4-(5-{[(4-fluorophenyl)amino]carbonyl}-2-methylphenyl)-7-oxo-7,8-dihydropyrido[2,3-d]pyrimidin-2-yl]amino}ethyl)methylcarbamate] | statistically nonsignificant inhibition
4 | Cc1ccc(C(=O)Nc2ccc(F)cc2)cc1-c1nc(N(C)CCN(C)C)nc2c1ccc(=O)n2-c1c(F)cccc1F [Example 99, 3-{8-(2,6-difluorophenyl)-2-[[2-(dimethylamino)ethyl](methyl)amino]-7-oxo-7,8-dihydropyrido[2,3-d]pyrimidin-4-yl}-N-(4-fluorphenyl)-4-methylbenzamide] | statistically nonsignificant inhibition
5 | Cc1ccc(C(=O)Nc2nccs2)cc1-c1nc(NCCCNC(C)C)nc2c1ccc(=O)n2-c1c(F)cccc1F [Example 101, 3-[8-(2,6-difluorophenyl)-2-({3-[(1-methylethyl)amino]propyl}amino)-7-oxo-7,8-dihydropyrido[2,3-d]pyrimidin-4-yl]-4-methyl-N-1,3-thiazol-2-ylbenzamide] | statistically significant inhibition
6 | Cc1ccc(C(=O)Nc2nccs2)cc1-c1nc(NCCCNC(C)(C)C)nc2c1ccc(=O)n2-c1c(F)cccc1F [Example 102, 3-[8-(2,6-difluorophenyl)-2-({3-[(1,1-dimethylethyl)amino]propyl}amino)-7-oxo-7,8-dihydropyrido[2,3-d]pyrimidin-4-yl]-4-methyl-N-1,3-thiazol-2-ylbenzamide] | statistically nonsignificant inhibition
7 | Cc1ccc(C(=O)Nc2nccs2)cc1-c1nc(NCCNC(C)C)nc2c1ccc(=O)n2-c1c(F)cccc1F [Example 103, 3-[8-(2,6-difluorophenyl)-2-({2-[(1-methylethyl)amino]ethyl}amino)-7-oxo-7,8-dihydropyrido[2,3-d]pyrimidin-4-yl]-4-methyl-N-1,3-thiazol-2-ylbenzamide] | statistically significant inhibition
8 | Cc1ccc(C(=O)Nc2nccs2)cc1-c1nc(N(C)CCCN(C)C)nc2c1ccc(=O)n2-c1c(F)cccc1F [Example 107, 3-{8-(2,6-difluorophenyl)-2-[[3-(dimethylamino)propyl](methyl)amino]-7-oxo-7,8-dihydropyrido[2,3-d]pyrimidin-4-yl}-4-methyl-N-1,3-thiazol-2-ylbenzamide] | statistically significant inhibition
9 | Cc1ccc(C(=O)Nc2ccc(F)cc2)cc1-c1nc(N(C)CCCN(C)C)nc2c1ccc(=O)n2-c1c(F)cccc1F [Example 115, 3-{8-(2,6-difluorophenyl)-2-[[3-(dimethylamino)propyl](methyl)amino]-7-oxo-7,8-dihydropyrido[2,3-d]pyrimidin-4-yl}-N-(4-fluorophenyl)-4-methylbenzamide] | statistically nonsignificant inhibition
10 | CCN(CC)CCCNc1nc(-c2cc(C(=O)NC)ccc2C)c2ccc(=O)n(-c3c(F)cccc3F)c2n1 [Example 119, 3-[2-{[3-(diethylamino)propyl]amino}-8-(2,6-difluorophenyl)-7-oxo-7,8-dihydropyrido[2,3-d]pyrimidin-4-yl]-N,4-dimethylbenzamide] | statistically significant inhibition
11 | CCN(CC)CCCNc1nc(-c2cc(C(=O)N(C)C)ccc2C)c2ccc(=O)n(-c3c(F)cccc3F)c2n1 [Example 120, 3-[2-{[3-(diethylamino)-propyl]amino}-8-(2,6-difluorophenyl)-7-oxo-7,8-dihydropyrido[2,3-d]-pyrimidin-4-yl]-N,N,4-trimethylbenzamide] | statistically nonsignificant inhibition; also recorded: inactive
12 | CCN(CC)CCCNc1nc(-c2cc(C(=O)N[C@H](C)C(C)C)ccc2C)c2ccc(=O)n(-c3c(F)cccc3F)c2n1 [Example 130] | statistically nonsignificant inhibition
13 | CCN(CC)CCCNc1nc(-c2cc(C(=O)NCC3CCCC3)ccc2C)c2ccc(=O)n(-c3c(F)cccc3F)c2n1 [Example 132, N-(cyclopentylmethyl)-3-[2-{[3-(diethylamino)propyl]amino}-8-(2,6-difluorophenyl)-7-oxo-7,8-dihydropyrido[2,3-d]pyrimidin-4-yl]-4-methylbenzamidetrifluoroacetate] | statistically nonsignificant inhibition
14 | CCN(CC)CCCNc1nc(-c2cc(C(=O)NCCF)ccc2C)c2ccc(=O)n(-c3c(F)cccc3F)c2n1 [Example 133, 3-[2-{[3-(diethylamino)propyl]amino}-8-(2,6-difluorophenyl)-7-oxo-7,8-dihydropyrido[2,3-d]pyrimidin-4-yl]-N-(2-fluoroethyl)-4-methylbenzamidetrifluoroacetate] | statistically significant inhibition
15 | CCN(CC)CCCNc1nc(-c2cc(C(=O)NCCOC)ccc2C)c2ccc(=O)n(-c3c(F)cccc3F)c2n1 [Example 134, 3-[2-{[3-(diethylamino)propyl]amino-}8(2,6-difluorophenyl)-7-oxo-7,8-dihydropyrido[2,3-d]pyrimidin-4-yl]-4-methyl-N-[2-(methyloxy)ethyl]benzamidetrifluoroacetate] | statistically nonsignificant inhibition
16 | CCN(CC)CCCNc1nc(-c2cc(C(=O)NCC3CCCCC3)ccc2C)c2ccc(=O)n(-c3c(F)cccc3F)c2n1 [Example 135, N-(cyclohexylmethyl)-3-[2-{[3-(diethylamino)propyl]amino}-8-(2,6-difluorophenyl)-7-oxo-7,8-dihydropyrido[2,3-d]pyrimidin-4-yl]-4-methylbenzamidetrifluoroacetate] | inactive
17 | CCN(CC)CCCNc1nc(-c2cc(C(=O)NC3CCC3)ccc2C)c2ccc(=O)n(-c3c(F)cccc3F)c2n1 [Example 137, N-cyclobutyl-3-[2-{[3-(diethylamino)propyl]amino}-8-(2,6-difluorophenyl)-7-oxo-7,8-dihydropyrido[2,3-d]pyrimidin-4-yl]-4-methylbenzamide trifluoroacetate] | statistically significant inhibition
18 | CCN(CC)CCCNc1nc(-c2cc(C(=O)NCC3CC3)ccc2C)c2ccc(=O)n(-c3c(F)cccc3F)c2n1 [Example 138, N-(cyclopropylmethyl)-3-[2-{[3-(diethylamino)propyl]amino}-8-(2,6-difluorophenyl)-7-oxo-7,8-dihydropyrido[2,3-d]pyridin-4-yl]-4-methylbenzamide trifluoroacetate] | statistically nonsignificant inhibition
19 | CCN(CC)CCCNc1nc(-c2cc(C(=O)Nc3ccccc3)ccc2C)c2ccc(=O)n(-c3c(F)cccc3F)c2n1 [Example 147, 3-[2-{[3-(diethylamino)propyl]amino}-8-(2,6-difluorophenyl)-7-oxo-7,8-dihydropyrido[2,3-d]pyrimidin-4-yl]-4-methyl-N-phenylbenzamide] | statistically nonsignificant inhibition
20 | CCN(CC)CCCNc1nc(-c2cc(C(=O)N[C@@H](C)c3ccccc3)ccc2C)c2ccc(=O)n(-c3c(F)cccc3F)c2n1 [Example 149, 3-[2-{[3-(diethylamino)propyl]amino}-8-(2,6-difluorophenyl)-7-oxo-7,8-dihydropyrido[2,3-d]pyrimidin-4-yl]-4-methyl-N-[(1S)-1-phenylethyl]benzamide] | inactive
